Consider 1 molecule from paper PMC7007950, “Farrerol Directly Targets GSK-3β to Activate Nrf2-ARE Pathway and Protect EA.hy926 Cells against Oxidative Stress-Induced Injuries” (Oxidative Medicine and Cellular Longevity, 2020).

The target in this assay is T1, glycogen synthase kinase 3β (GSK-3β) (Homo sapiens, UniProt P49841).
T1 construct: gene GSK3B; recombinant His-tagged GSK-3β
Put plainly: BLI on immobilized GSK-3β; also DARTS in lysate and Kinase-Glo inhibition (IC50 […]). It counts as binding.

T1 sequence (P49841 whole entry): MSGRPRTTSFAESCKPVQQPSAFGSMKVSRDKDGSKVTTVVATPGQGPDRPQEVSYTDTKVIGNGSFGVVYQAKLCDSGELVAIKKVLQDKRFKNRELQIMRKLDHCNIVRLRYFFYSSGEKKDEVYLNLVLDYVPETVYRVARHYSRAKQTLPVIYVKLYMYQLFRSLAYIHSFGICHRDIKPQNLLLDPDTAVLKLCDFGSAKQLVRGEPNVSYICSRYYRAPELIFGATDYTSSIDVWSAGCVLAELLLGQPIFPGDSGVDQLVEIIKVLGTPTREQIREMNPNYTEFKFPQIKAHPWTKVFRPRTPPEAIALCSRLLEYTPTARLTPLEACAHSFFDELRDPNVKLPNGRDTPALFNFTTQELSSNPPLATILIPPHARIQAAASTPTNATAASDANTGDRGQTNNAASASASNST

`Cc1c(O)c(C)c2c(c1O)C(=O)C[C@@H](c1ccc(O)cc1)O2` [farrerol] had a Kd of 634 µM.
